Source: patent publication US11414429B2, “Compound or pharmaceutically acceptable salt thereof” (RIKEN, priority 2016, dated 2022)
Where two headings read alike, the source gives them in different places.

Columns and labels:
tankyrase 1 (TNKS 1) = molecular target: T1, tankyrase 1 (TNKS 1) (Homo sapiens, UniProt O95271); assay: Tankyrase inhibitory activity test (ELISA, self-polyADP ribosylation), tankyrase 1; type: biochemical; conditions: self-polyADP ribosylation
T1 construct: 1,024-1,327aa; made in house; host or cells: cell-free protein synthesis system
T1 sequence (O95271 1024-1327): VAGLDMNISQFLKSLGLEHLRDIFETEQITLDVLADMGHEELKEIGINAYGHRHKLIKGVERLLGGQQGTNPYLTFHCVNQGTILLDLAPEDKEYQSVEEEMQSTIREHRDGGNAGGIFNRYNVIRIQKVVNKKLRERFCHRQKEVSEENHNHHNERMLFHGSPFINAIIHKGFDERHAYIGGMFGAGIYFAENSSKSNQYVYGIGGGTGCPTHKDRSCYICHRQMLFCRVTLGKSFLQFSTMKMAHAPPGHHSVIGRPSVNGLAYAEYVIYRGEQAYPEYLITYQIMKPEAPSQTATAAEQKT
Summary of the method: (§1)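 IC50 was fitted to residual self-polyADP-ribosylation activity, detected by HRP-streptavidin chemiluminescence. Plate-bound Flag fusions (TNKS1 1,024-1,327aa SAM+PARP; TNKS2 613-1,116aa ANK5+SAM+PARP, cell-free synthesized) saw compound for 10 min at room temperature in 50 mM Tris-HCl pH 8.0, 4 mM MgCl2, 0.2 mM DTT. Reaction with 225 μM NAD/25 μM 6-biotin-17-NAD solution ran 45 min at 30 °C.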

[1] = tested on: human colorectal cancer cell line, COLO-320DM; assay: Cell proliferation inhibitory activity test (Celltiter-Glo Luminescent Cell Viability Assay); type: cell-based; conditions: COLO-320DM cells, 96 hours
Summary of the method: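 GI50 is taken as the concentration halving cell growth versus 1% DMSO control, measured by ATP luminescence. Compound exposure lasted 96 h at 37° C. under 5% CO2, after overnight seeding in RPMI-1640 with 10% FBS and 2 mM glutamine.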

tankyrase 2 (TNKS 2) = molecular target: T2, tankyrase 2 (TNKS 2) (Homo sapiens, UniProt Q9H2K2); assay: Tankyrase inhibitory activity test (ELISA, self-polyADP ribosylation), tankyrase 2; type: biochemical; conditions: self-polyADP ribosylation
T2 construct: 613-1, 116aa; made in house; host or cells: cell-free protein synthesis system
T2 sequence (Q9H2K2 613-1166): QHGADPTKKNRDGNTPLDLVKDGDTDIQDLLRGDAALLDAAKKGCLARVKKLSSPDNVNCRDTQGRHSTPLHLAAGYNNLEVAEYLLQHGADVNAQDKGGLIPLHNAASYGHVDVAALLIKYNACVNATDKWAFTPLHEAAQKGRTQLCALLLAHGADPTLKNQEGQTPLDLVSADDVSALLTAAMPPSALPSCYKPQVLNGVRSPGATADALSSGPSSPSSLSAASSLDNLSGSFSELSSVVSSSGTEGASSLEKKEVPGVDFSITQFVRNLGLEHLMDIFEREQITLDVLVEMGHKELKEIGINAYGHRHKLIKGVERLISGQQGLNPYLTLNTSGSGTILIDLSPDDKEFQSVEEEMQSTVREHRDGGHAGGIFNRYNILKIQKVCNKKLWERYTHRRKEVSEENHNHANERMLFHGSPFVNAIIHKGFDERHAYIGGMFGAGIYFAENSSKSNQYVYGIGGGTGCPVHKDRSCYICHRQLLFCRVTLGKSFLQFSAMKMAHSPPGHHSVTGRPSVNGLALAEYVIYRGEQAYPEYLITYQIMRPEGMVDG
Summary of the method: as §1

[2] = tankyrase 1, ELISA, read-out: TNKS1 inhibitory activity (IC50 class)
[3] = read-out: COLO-320 DM cell proliferation inhibitory activity (GI50 class)
[4] = tankyrase 2, ELISA, read-out: TNKS2 inhibitory activity (IC50 class)
[5] = ELISA, class symbols, read-out: TNKS1 (inhibitory activity against tankyrase 1, IC50 value)
[6] = class symbols, read-out: COLO-320 DM (cell proliferation inhibitory activity, GI50 value)
[7] = ELISA, class symbols, read-out: TNKS2 (inhibitory activity against tankyrase 2, IC50 value)

| IC50 (tankyrase 1 (TNKS 1); [2]) [nM] | GI50 [1, 3] [nM] | IC50 (tankyrase 2 (TNKS 2); [4]) [nM] | IC50 (tankyrase 1 (TNKS 1); [5]) [nM] | GI50 [1, 6] [nM] | IC50 (tankyrase 2 (TNKS 2); [7]) [nM] | SMILES |
| --- | --- | --- | --- | --- | --- | --- |
| < 20 | 100 to 600 | < 20 |  |  |  | [2H]C([2H])([2H])N1CCCc2c1nc(N1CCC3(CC1)C(=O)N(CCO)c1cc(F)cc(F)c13)[nH]c2=O [Example 370, 4,6-difluoro-1-(2-hydroxyethyl)-1′-[8-(methyl-d3)-4-oxo-3,4,5,6,7,8-hexahydro-pyrido [2,3-d]pyrimidin-2-yl] spiro[in-doline-3,4′-piperidin]-2-one] |
| < 20 | 100 to 600 | < 20 |  |  |  | COc1cc(F)c2c(c1)N(C)C(=O)C21CCN(c2nc3c(c(=O)[nH]2)CCCN3C)CC1 [Example 372, 4-fluoro-6-methoxy-1-methyl-1′-(8-methyl-4-oxo-3,4,5,6,7,8-hexahydropyrido [2,3-d]pyrimidin-2-yl) spiro[indoline-3,4'-piperidin]-2-one] |
| < 20 | < 100 | < 20 |  |  |  | COc1cc(F)c2c(c1)N(CCO)C(=O)C21CCN(c2nc3c(c(=O)[nH]2)CCCN3C)CC1 [Example 373, 4-fluoro-1-(2-hydroxy-ethyl)-6-methoxy-1′-(8-methyl-4-oxo-3,4,5,6,7,8-hexahydropyrido [2,3-d]pyrimidin-2-yl) spiro[indoline-3,4′-piperidin]-2-one] |
| < 20 | < 100 | < 20 |  |  |  | CN1CCCc2c1nc(N1CCC3(CC1)C(=O)N(CC#N)c1cc(F)cc(F)c13)[nH]c2=O [Example 374, 2-(4,6-difluoro-1′-(8-methyl-4-oxo-3,4,5,6,7,8-hexahydropyrido [2,3-d]pyrimidin-2-yl)-2-oxospiro[indoline-3,4′-piperidin]-1-yl)acetonitrile] |
| < 20 | 100 to 600 | < 20 |  |  |  | CN(C)CCOc1cc(Cl)c2c(c1)N(C)C(=O)C21CCN(c2nc3c(c(=O)[nH]2)CCCN3C)CC1 [Example 375, 4-chloro-6-[2-(dimethylamino)ethoxy]-1-methyl-1′-(8-methyl-4-oxo-3,4,5,6,7,8-hexahydro-pyrido[2,3-d]pyrimidin-2-yl) spiro[indoline-3,4′-piperidin]-2-one] |
| < 20 | 100 to 600 | < 20 |  |  |  | CN1CCCc2c1nc(N1CCC3(CC1)C(=O)N(C)c1cc(OCCN4CCCCC4)cc(Cl)c13)[nH]c2=O [Example 376, 4-chloro-1-methyl-1′-(8-methyl-4-oxo-3,4,5,6,7,8-hexahydropy-rido[2,3-d]pyrimidin-2-yl)-6-(2-(piperidin-1-yl)ethoxy)spiro [indoline-3,4′-piperidin]-2-one] |
| < 20 | 100 to 600 | < 20 |  |  |  | CN1CCCc2c1nc(N1CCC3(CC1)C(=O)N(C)c1cc(OCCN4CCOCC4)cc(Cl)c13)[nH]c2=O [Example 377, 4-chloro-1-methyl-1′-(8-methyl-4-oxo-3,4,5,6,7,8-hexahydropy-rido[2,3-d]pyrimidin-2-yl)-6-(2-morpholino-ethoxy) spiro[indoline-3,4′-piperidin]-2-one] |
| < 20 | 600 to 1000 | < 20 |  |  |  | CN1CCCc2c1nc(N1CCC3(CC1)C(=O)N(C)c1cc(OCCN4CCS(=O)(=O)CC4)cc(Cl)c13)[nH]c2=O [Example 378, 4-chloro-6-[2-(1,1-dioxi-dothio-morpholino)ethoxy]-1-methyl-1′-(8-methyl-4-oxo-3,4,5,6,7,8-hexahydropyrido [2,3-d]pyrimidin-2-yl)spiro [indoline-3,4′-piperidin]-2-one] |
| < 20 | < 100 | < 20 |  |  |  | COc1cc(F)c2c(c1)N(CC#N)C(=O)C21CCN(c2nc3c(c(=O)[nH]2)CCCN3C)CC1 [Example 379, 2-[4-fluoro-6-methoxy-1′-(8-methyl-4-oxo-3,4,5,6,7,8-hexahydropyrido [2,3-d]pyrimidin-2-yl)-2-oxospiro [indoline-3,4′-piperidin]-1-yl] acetonitrile] |
| < 20 | 600 to 1000 | < 20 |  |  |  | CN1CCC(Oc2cc(F)c3c(c2)N(C)C(=O)C32CCN(c3nc4c(c(=O)[nH]3)CCCN4C)CC2)CC1 [Example 380, 4-fluoro-1-methyl-1′-(8-methyl-4-oxo-3,4,5,6,7,8-hexahydropyrido [2,3-d]pyrimidin-2-yl)-6-[(1-methylpiperidin-4-yl)oxy]spiro [indoline-3,4′-piperidin]-2-one] |
| < 20 | 100 to 600 | < 20 |  |  |  | CN1CCCc2c1nc(N1CCC3(CC1)C(=O)N(CCO)c1cc(OCCO)cc(F)c13)[nH]c2=O [Example 381, 4-fluoro-6-(2-hydroxy-thoxy)-1-(2-hydroxyethyl)-1′-(8-methyl-4-oxo-3,4,5,6,7,8-hexahydropyrido [2,3-d]pyrimidin-2-yl)spiro [indoline-3,4′-piperidin]-2-one] |
| < 20 | 100 to 600 | < 20 |  |  |  | CCN1CCCc2c1nc(N1CCC3(CC1)C(=O)N(CCO)c1cc(F)cc(F)c13)[nH]c2=O [Example 382, 1′-(8-ethyl-4-oxo-3,4,5,6,7-hexahydropyrido-[2,3-d]pyrimidin-2-yl)-4,6-difluoro-1-(2-hy-droxyethyl)spiro [indoline-3,4′-piperidin]-2-one] |
| < 20 | 100 to 600 | < 20 |  |  |  | COCCOc1cc(F)c2c(c1)N(CCO)C(=O)C21CCN(c2nc3c(c(=O)[nH]2)CCCN3C)CC1 [Example 383, 4-fluoro-1-(2-hydroxy-ethyl)-6-(2-methoxyethoxy-1′-(8-methyl-4-oxo-3,4,5,6,7,8-hexahydropyrido [2,3-d]pyrimidin-2-yl))spiro [indoline-3,4′-piperidin]-2-one] |
| < 20 | 100 to 600 | < 20 |  |  |  | CN1CCCc2c1nc(N1CCC3(CC1)C(=O)N(CCO)c1cc(O)cc(F)c13)[nH]c2=O [Example 384, 4-fluoro-6-hydroxy-1-(2-hydroxyethyl)-1′-(8-methyl-4-oxo-3,4,5,6,7,8-hexahydropyrido [2,3-d]pyrimidin-2-yl) spiro[indoline-3,4′-piperidin]-2-one] |
| < 20 | 600 to 1000 | < 20 |  |  |  | CN1CCCc2c1nc(N1CCC3(CC1)C(=O)N(CCO)c1cc(OCCN4CCOCC4)cc(F)c13)[nH]c2=O [Example 386, 4-fluoro-1-(2-hydroxy-ethyl)-1′-(8-methyl-4-oxo-3,4,5,6,7,8-hexahydropyrido [2,3-d]pyrimidin-2-yl)-6-(2-morpholino-ethoxy)spiro [indoline-3,4′-piperidin]-2-one] |
| < 20 | < 100 | < 20 |  |  |  | CN1CCN(c2cc(F)c3c(c2)N(C)C(=O)C32CCN(c3nc4c(c(=O)[nH]3)CCCN4C)CC2)CC1 [Example 387, 4-fluoro-1-methyl-1′-(8-methyl-4-oxo-3,4,5,6,7,8-hexahydropyrido [2,3-d]pyrimidin-2-yl)-6-(4-methylpiperazin-1-yl)spiro [indoline-3,4′-piperidin]-2-one] |
| < 20 | < 100 | < 20 |  |  |  | CN1CCCc2c1nc(N1CCC3(CC1)C(=O)N(C)c1cc(OCC4COC4)cc(F)c13)[nH]c2=O [Example 388, 4-fluoro-1-methyl-1′-(8-methyl-4-oxo-3,4,5,6,7,8-hexahydropyrido [2,3-d]pyrimidin-2-yl)-6-(oxetan-3-ylmethoxy) spiro[indoline-3,4′-piperidin]-2-one] |
| < 20 | < 100 | < 20 |  |  |  | CN1CCCc2c1nc(N1CCC3(CC1)C(=O)N(C)c1cc(OC4CCOCC4)cc(F)c13)[nH]c2=O [Example 389, 4-fluoro-1-methyl-1′-(8-methyl-4-oxo-3,4,5,6,7,8-hexahydropyrido [2,3-d]pyrimidin-2-yl)-6-[(tetrahydro-2H-pyran-4-yl)oxy]spiro [indoline-3,4′-piperidin]-2-one] |
|  |  |  | < 20 | 100 to 600 | < 20 | C[C@@H]1CN(c2cc(F)c3c(c2)N(C)C(=O)C32CCN(c3nc4c(c(=O)[nH]3)CCCN4C)CC2)C[C@H](C)N1 [Example 390, 6-(cis-3,5-dimethyl-piperazin-1-yl)-4-fluoro-1-methyl-1′-(8-methyl-4-oxo-3,4,5,6,7,8-hexahydropyrido [2,3-d]pyrimi-din-2-yl) spiro[indoline-3,4′-piperidin]-2(1H)-one] |
|  |  |  | < 20 | 100 to 600 | < 20 | CN1CCCc2c1nc(N1CCC3(CC1)C(=O)N(C)c1cc(OCC(=O)O)cc(F)c13)[nH]c2=O [Example 392] |

| SMILES | IC50 (tankyrase 1 (TNKS 1); [2]) [nM] | GI50 [1, 3] [nM] | IC50 (tankyrase 2 (TNKS 2); [4]) [nM] | IC50 (tankyrase 1 (TNKS 1); [5]) [nM] | GI50 [1, 6] [nM] | IC50 (tankyrase 2 (TNKS 2); [7]) [nM] |
| --- | --- | --- | --- | --- | --- | --- |
| CN1CCCc2c1nc(N1CCC3(CC1)C(=O)N(C)c1cc(N4CC5CCC(C4)N5)cc(F)c13)[nH]c2=O [Example 391, 6-(3,8-diazabicyclo [3.2.1]octan-3-yl)-4-fluoro-1-methyl-1′-(8-methyl-4-oxo-3,4,5,6,7,8-hexahydro-pyrido[2,3-d]pyrimidin-2-yl) spiro[indoline-3,4′-piperidin]-2(1H)-one] |  |  |  | < 20 | 600 to 1000 | < 20 |
